From patent US8871753B2, “Macrocyclic compounds and their use as kinase inhibitors” (Incyte Corporation, priority 2008, dated 2014) come the findings set out here.

Structures can show the parent of a compound that is named as a salt. Where two headings read alike, the source gives them in different places. Bounds are passed on as bounds.

What all share (assay type): biochemical
One assay addresses TYK2 (Homo sapiens, UniProt P29597). The assay is described as follows: TYK2 kinase inhibition (Table A1).
The target of assay [1] is T1, human JAK2 (a.a. 828-1132) (Homo sapiens, UniProt O60674).
T1 construct: JAK2 (a.a. 828-1132); His tag (N); made in house; host or cells: insect cells (baculovirus)
The experiment in a line: In vitro JAK kinase assay (HTRF, phosphorylation of a biotinylated peptide), JAK2. In outline: (§1)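 Phosphorylation of a biotinylated peptide by the JAK kinase domain, detected by HTRF with Eu-Py20 and SA-APC. ATP was 90 μM for JAK1, 30 μM for JAK2 and 3 μM for JAK3. Reactions ran 1 h at room temperature and were stopped with EDTA, followed by 40 min antibody binding.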

Assay [2] deals with T2, human JAK3 (a.a. 781-1124) (Homo sapiens, UniProt P52333).
T2 construct: JAK3 (a.a. 781-1124); His tag (N); made in house; host or cells: insect cells (baculovirus)
The experiment in a line: In vitro JAK kinase assay (HTRF, phosphorylation of a biotinylated peptide), JAK3. In outline:
as §1

In assay [3] the target is T3, human JAK1 (a.a. 837-1142) (Homo sapiens, UniProt P23458).
T3 construct: human JAK1 (a.a. 837-1142); His tag (N); made in house; host or cells: insect cells (baculovirus)
The assay is described as follows: In vitro JAK kinase assay (HTRF, phosphorylation of a biotinylated peptide), JAK1. As to conditions: read-out: JAK1 IC50. In outline:
as §1

For assay [4], the target named is T4, Recombinant Human Anaplastic Lymphoma Kinase (Homo sapiens, UniProt Q9UM73).
T4 construct: purchased Invitrogen, Carlsbad, Calif
The assay is described as follows: ALK HTRF kinase assay. In outline:
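TR-FRET read-out (Eu anti-pTyr antibody + streptavidin-APC) of biotin-peptide phosphorylation by recombinant human enzyme; IC50 by sigmoidal fit with top/bottom baselines and Hill slope.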

Where [5] appears, read: method AA1 (30 μM ATP) or AA2 (1000 μM ATP), not stated per value.
The mark [6] stands for this setting: method AA1 (3 μM ATP) or AA2 (1000 μM ATP), not stated per value.
Setting [7] is: method AA1 (90 μM ATP) or AA2 (1000 μM ATP), not stated per value.
Where [8] appears, read: compound at 500 nM or 1 mM, 90 μM ATP.
The mark [9] stands for this setting: percentage inhibition of the example compound at a concentration of 500 nM or 1 mM (not specified which).
Where [10] appears, read: compound at a concentration of 500 nM or 1 mM (not specified), cells shown as percentage.

Chain of TYK2 (P29597 whole entry): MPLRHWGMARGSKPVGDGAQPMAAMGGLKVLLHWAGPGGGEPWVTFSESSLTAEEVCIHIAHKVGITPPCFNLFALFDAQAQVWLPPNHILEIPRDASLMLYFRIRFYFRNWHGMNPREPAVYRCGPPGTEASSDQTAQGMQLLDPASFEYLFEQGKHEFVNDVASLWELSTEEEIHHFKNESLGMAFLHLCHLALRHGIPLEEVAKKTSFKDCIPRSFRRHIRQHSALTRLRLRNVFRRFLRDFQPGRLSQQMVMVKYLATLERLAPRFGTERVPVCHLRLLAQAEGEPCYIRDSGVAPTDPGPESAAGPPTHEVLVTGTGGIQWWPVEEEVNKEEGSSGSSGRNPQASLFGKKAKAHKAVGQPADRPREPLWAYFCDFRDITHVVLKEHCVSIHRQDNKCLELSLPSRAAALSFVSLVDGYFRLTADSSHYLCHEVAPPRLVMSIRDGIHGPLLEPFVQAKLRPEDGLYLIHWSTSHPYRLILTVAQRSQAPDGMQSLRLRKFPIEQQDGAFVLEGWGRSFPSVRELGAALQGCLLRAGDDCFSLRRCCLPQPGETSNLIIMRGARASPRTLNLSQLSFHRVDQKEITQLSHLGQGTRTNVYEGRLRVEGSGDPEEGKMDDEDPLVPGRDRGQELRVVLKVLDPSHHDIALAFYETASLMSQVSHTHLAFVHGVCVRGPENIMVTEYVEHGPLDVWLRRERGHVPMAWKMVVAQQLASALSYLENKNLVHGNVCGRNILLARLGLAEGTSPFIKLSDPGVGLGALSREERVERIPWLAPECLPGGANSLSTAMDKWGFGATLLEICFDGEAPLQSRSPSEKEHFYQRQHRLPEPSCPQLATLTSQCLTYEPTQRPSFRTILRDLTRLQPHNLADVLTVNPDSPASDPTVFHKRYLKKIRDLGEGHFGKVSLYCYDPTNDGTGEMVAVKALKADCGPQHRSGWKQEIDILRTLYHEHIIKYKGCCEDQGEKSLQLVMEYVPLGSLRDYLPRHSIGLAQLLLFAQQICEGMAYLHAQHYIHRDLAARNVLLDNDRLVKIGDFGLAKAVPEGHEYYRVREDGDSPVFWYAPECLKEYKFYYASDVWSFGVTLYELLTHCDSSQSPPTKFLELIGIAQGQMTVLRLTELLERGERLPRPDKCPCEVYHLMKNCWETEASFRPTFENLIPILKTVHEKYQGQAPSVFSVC
T1 sequence (O60674 828-1132): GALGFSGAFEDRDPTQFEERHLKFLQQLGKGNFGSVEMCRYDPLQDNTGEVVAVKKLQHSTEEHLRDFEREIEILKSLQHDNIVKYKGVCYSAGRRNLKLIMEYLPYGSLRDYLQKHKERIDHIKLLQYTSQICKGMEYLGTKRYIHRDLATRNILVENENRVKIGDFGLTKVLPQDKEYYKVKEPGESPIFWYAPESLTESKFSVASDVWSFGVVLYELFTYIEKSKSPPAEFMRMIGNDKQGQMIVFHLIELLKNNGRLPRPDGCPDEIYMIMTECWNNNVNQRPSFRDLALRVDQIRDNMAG
T2 sequence (P52333 781-1124): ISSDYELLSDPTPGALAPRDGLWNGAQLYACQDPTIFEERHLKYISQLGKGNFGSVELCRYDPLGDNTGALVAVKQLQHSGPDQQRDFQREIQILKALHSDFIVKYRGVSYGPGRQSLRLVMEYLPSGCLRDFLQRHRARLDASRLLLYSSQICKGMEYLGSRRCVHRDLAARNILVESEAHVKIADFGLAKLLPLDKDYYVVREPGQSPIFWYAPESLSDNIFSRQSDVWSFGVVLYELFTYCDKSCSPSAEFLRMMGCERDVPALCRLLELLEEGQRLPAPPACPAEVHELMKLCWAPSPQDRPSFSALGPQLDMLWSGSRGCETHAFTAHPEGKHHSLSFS
T3 sequence (P23458 849-1154): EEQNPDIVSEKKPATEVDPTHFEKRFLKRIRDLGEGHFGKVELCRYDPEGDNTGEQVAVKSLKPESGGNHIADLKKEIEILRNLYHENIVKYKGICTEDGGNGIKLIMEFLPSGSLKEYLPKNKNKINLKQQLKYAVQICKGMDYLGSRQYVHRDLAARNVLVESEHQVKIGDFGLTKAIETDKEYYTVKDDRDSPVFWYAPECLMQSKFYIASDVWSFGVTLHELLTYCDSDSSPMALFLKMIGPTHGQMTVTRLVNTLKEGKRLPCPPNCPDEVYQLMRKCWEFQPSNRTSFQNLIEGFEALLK
T4 sequence (Q9UM73 19-1620): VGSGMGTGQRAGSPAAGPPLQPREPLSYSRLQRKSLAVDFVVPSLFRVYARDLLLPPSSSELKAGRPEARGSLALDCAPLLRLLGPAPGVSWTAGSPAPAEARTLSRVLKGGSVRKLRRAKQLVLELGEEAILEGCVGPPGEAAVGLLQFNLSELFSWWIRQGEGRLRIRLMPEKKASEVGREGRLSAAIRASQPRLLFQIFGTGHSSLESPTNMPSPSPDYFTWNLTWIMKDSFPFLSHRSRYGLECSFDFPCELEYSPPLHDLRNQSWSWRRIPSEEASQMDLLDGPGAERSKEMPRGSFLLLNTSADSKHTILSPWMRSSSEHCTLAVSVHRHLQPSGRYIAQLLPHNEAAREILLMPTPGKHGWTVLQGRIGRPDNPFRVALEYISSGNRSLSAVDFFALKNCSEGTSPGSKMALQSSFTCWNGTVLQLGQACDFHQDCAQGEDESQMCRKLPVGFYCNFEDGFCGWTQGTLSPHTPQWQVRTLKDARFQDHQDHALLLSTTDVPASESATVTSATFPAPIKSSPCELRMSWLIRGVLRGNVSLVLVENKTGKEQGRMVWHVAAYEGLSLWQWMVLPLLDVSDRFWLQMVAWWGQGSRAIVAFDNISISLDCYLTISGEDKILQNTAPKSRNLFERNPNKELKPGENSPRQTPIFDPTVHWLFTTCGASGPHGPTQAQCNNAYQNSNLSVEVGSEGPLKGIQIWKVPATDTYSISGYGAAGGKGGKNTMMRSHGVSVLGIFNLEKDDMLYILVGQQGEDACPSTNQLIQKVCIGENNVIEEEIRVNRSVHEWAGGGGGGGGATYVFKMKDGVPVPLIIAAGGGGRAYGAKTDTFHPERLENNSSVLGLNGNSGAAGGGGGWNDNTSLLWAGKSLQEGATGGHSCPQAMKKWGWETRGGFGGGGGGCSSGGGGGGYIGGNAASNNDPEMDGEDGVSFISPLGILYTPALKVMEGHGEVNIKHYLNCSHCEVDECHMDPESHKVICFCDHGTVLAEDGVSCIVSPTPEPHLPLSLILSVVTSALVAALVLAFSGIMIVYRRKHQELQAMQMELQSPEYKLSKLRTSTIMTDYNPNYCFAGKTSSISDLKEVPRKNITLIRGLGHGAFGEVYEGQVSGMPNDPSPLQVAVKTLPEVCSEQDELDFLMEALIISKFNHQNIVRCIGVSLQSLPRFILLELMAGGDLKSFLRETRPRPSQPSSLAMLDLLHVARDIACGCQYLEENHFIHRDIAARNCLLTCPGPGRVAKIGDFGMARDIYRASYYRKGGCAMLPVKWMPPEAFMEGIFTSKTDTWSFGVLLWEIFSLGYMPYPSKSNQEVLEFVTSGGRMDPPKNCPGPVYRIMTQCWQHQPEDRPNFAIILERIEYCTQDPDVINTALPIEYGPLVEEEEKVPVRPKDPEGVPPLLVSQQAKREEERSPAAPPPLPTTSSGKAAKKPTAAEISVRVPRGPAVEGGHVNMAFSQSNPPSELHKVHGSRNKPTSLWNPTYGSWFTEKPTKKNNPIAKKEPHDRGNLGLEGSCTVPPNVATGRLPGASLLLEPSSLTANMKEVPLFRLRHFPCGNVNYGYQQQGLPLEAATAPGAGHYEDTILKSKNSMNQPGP

With `CC(=O)N1CCCC(C(=O)Nc2ccc3cc2CCc2cccc(c2)Nc2ncc(Cl)c(n2)N3)C1` (stereo not shown) [Example A47, 1-Acetyl-N-[6-chloro-2,4,8,22-tetraazatetracyclo[14.3.1.1(3,7).1(9,13)]docosa-1(20),3(22),4,6,9(21),10,12,16,18-nonaen-12-yl]piperidine-3-carboxamide trifluoroacetate], the IC50 against TYK2 is 39 nM; in assay [1] (setting [5]) it was 6.9 nM; in assay [2] (setting [6]), 25 nM; in assay [3] (setting [7]), 17 nM. Further, in assay [4] (setting [8]), the “ALK % of inhibition at a concentration of 500 nM or 1 mM” value (from here on “ALK % of inhibition”) was 26%.
As for `CN(C)S(=O)(=O)N1CCC(CC(=O)Nc2ccc3cc2CCc2cccc(c2)Nc2ncc(Cl)c(n2)N3)CC1` [Example A81, N-[6-Chloro-2,4,8,22-tetraazatetracyclo[14.3.1.1(3,7).1(9,13)]docosa-1(20),3(22),4,6,9(21),10,12,16,18-nonaen-12-yl]-2-{1-[(dimethylamino)sulfonyl]piperidin-4-yl}acetamide trifluoroacetate], the IC50 against TYK2 is 4.3 nM; in assay [1] (setting [5]) it was 1.6 nM; in assay [2] (setting [6]), 24 nM; in assay [3] (setting [7]), 4.7 nM. Further, the “ALK % of inhibition” value in assay [4] (setting [8]) stood at 29%.
On to `CNC(=O)N1CCC(CC(=O)Nc2ccc3cc2CCc2cncc(c2)Nc2ncc(Cl)c(n2)N3)CC1` [Example A100, 4-(2-{[6-Chloro-2,4,8,18,22-pentaazatetracyclo[14.3.1.1(3,7).1(9,13)]docosa-1(20),3(22),4,6,9(21),10,12,16,18-nonaen-12-yl]amino}-2-oxoethyl)-N-methylpiperidine-1-carboxamide bis(trifluoroacetate)], for which the concentration for half-maximal inhibition (IC50) came to 3 nM at TYK2, 5.8 nM in assay [1] (setting [5]), 58 nM in assay [2] (setting [6]) and 1.5 nM in assay [3] (setting [7]). Besides, the “ALK % of inhibition” value in assay [4] (setting [8]) amounted to 28%.
As for `N#Cc1ccc(C(F)(F)F)cc1N1CCC(CC(=O)Nc2ccc3cc2CCc2cncc(c2)Nc2ncc(Cl)c(n2)N3)CC1` [Example A237, N-[6-Chloro-2,4,8,18,22-pentaazatetracyclo[14.3.1.1(3,7).1(9,13)]docosa-1(20),3(22),4,6,9(21),10,12,16,18-nonaen-12-yl]-2-{1-[2-cyano-5-(trifluoromethyl)phenyl]piperidin-4-yl}acetamide tris(trifluoroacetate)], the half-inhibitory concentration (IC50) against TYK2 was over 400 nM; in assay [1] (setting [5]) it was over 400 nM; in assay [2] (setting [6]) it was over 400 nM; in assay [3] (setting [7]) it was 90 nM. The “ALK % of inhibition” value in assay [4] (setting [8]) stood at 5.9%.
On to `Cc1cc(C(=O)N2CCC(CN(C)Cc3ccc4cc3CCc3cncc(c3)Nc3ncc(Cl)c(n3)N4)CC2)no1` [Example B344, 1-[6-Chloro-2,4,8,18,22-pentaazatetracyclo[14.3.1.1(3,7).1(9,13)]docosa-1(20),3(22),4,6,9(21),10,12,16,18-nonaen-12-yl]-N-methyl-N-({1-[(5-methylisoxazol-3-yl)carbonyl]piperidin-4-yl}methyl)methanamine tris(trifluoroacetate)], for which the IC50 on TYK2 (Table B1) is 276 nM; in assay [1] (Table B1), 90 nM; in assay [2] (Table B1) it was over 400 nM; in assay [3] (Table B1) it was 14 nM. The “ALK % of inhibition” value in assay [4] (setting [9]) was 43%.
`O=C(Nc1ccc2cc1CCc1cncc(c1)Nc1ncc(Cl)c(n1)N2)N1CCN(C(=O)c2ccccc2)CC1` [Example B286, 4-Benzoyl-N-[6-chloro-2,4,8,18,22-pentaazatetracyclo[14.3.1.1(3,7).1(9,13)]docosa-1(20),3(22),4,6,9(21),10,12,16,18-nonaen-12-yl]piperazine-1-carboxamide bis(trifluoroacetate)]: the IC50 against TYK2 (Table B1) was over 200 nM; in assay [1] (Table B1) it was over 200 nM; in assay [2] (Table B1) it was over 200 nM; in assay [3] (Table B1) it was 43 nM. Besides, in assay [4] (setting [10]), the “ALK % of inhibition” value was determined as 51%.
On to `O=C(CC1CCN(c2cccc(F)n2)CC1)Nc1ccc2cc1CCc1cncc(c1)Nc1ncc(Cl)c(n1)N2` [Example A181, N-[6-Chloro-2,4,8,18,22-pentaazatetracyclo[14.3.1.1(3,7).1(9,13)]docosa-1(20),3(22),4,6,9(21),10,12,16,18-nonaen-12-yl]-2-[1-(6-fluoropyridin-2-yl)piperidin-4-yl]acetamide tris(trifluoroacetate)], for which the IC50 was 89 nM on TYK2, 81 nM in assay [1] (setting [5]), over 200 nM in assay [2] (setting [6]) and 6.3 nM in assay [3] (setting [7]). Besides, the “ALK % of inhibition” value in assay [4] (setting [8]) came out at 42%.
On the same counts, the results for `O=C(CN1CCNCC1)Nc1ccc2cc1CCc1cncc(c1)Nc1ncc(Cl)c(n1)N2` [Example A115, N-[6-Chloro-2,4,8,18,22-pentaazatetracyclo[14.3.1.1(3,7).1(9,13)]docosa-1(20),3(22),4,6,9(21),10,12,16,18-nonaen-12-yl]-2-piperazin-1-acetamide tetrakis(trifluoroacetate)] are 45 nM, 42 nM, 300 nM, 34 nM and 20%.
Turning to `N#Cc1ccc(S(=O)(=O)N2CCC(CC(=O)Nc3ccc4cc3CCc3cccc(c3)Nc3ncc(Cl)c(n3)N4)CC2)cc1` [Example A209, N-[6-Chloro-2,4,8,22-tetraazatetracyclo[14.3.1.1(3,7).1(9,13)]docosa-1(20),3(22),4,6,9(21),10,12,16,18-nonaen-12-yl]-2-{1-[(4-cyanophenyl)sulfonyl]piperidin-4-yl}acetamide trifluoroacetate], the 50% inhibitory concentration (IC50) was over 200 nM against TYK2, 120 nM in assay [1] (setting [5]), over 200 nM in assay [2] (setting [6]) and 60 nM in assay [3] (setting [7]). For the same compound, the “ALK % of inhibition” value in assay [4] (setting [8]) was determined as 19%.
Regarding `O=C(Nc1ccc2cc1CCc1cncc(c1)Nc1ncc(Cl)c(n1)N2)N1CCC(c2cnccn2)C1` (stereo not shown) [Example B313, N-[6-Chloro-2,4,8,18,22-pentaazatetracyclo[14.3.1.1(3,7).1(9,13)]docosa-1(20),3(22),4,6,9(21),10,12,16,18-nonaen-12-yl]-3-pyrazin-2-ylpyrrolidine-1-carboxamide tetrakis(trifluoroacetate)], the concentration for half-maximal inhibition (IC50) at TYK2 (Table B1) is over 400 nM; in assay [1] (Table B1) it was 371 nM; in assay [2] (Table B1) it was over 400 nM; in assay [3] (Table B1) it was 48 nM. For the same compound, the “ALK % of inhibition” value in assay [4] (setting [9]) is 20%.
Regarding `O=C(Nc1nnn[nH]1)Nc1ccc2cc1CCc1cccc(c1)Nc1ncc(Cl)c(n1)N2` [Example B251, N-[6-Chloro-2,4,8,22-tetraazatetracyclo[14.3.1.1(3,7).1(9,13)]docosa-1(20),3(22),4,6,9(21),10,12,16,18-nonaen-12-yl]-N′-1H-tetrazol-5-ylurea trifluoroacetate], the concentration for half-maximal inhibition (IC50) against TYK2 (Table B1) was 14 nM; in assay [1] (Table B1), 37 nM; in assay [2] (Table B1), 4.2 nM; in assay [3] (Table B1), 53 nM. For the same compound, the “ALK % of inhibition” value in assay [4] (setting [10]) turned out to be 44%.
Consider `O=C(c1cc2cc(c1)OCCSc1cccc(c1)Nc1nc(ncc1Cl)N2)N1CCOCC1` [Example D52, trifluoroacetate], for which the IC50 was found to be 4.4 nM against TYK2 (Table D1); 1.2 nM in assay [1] (Table D1); 13 nM in assay [2] (Table D1); 1.5 nM in assay [3] (Table D1); 420 nM in assay [4] (Table D1, 90 μM ATP).
Turning to `Cc1cc(C(=O)Nc2ccc3cc2CCc2cccc(c2)Nc2ncc(Cl)c(n2)N3)nc(Cl)n1` [Example B280, 2-Chloro-N-[6-chloro-2,4,8,22-tetraazatetracyclo[14.3.1.1(3,7).1(9,13)]docosa-1(20),3(22),4,6,9(21),10,12,16,18-nonaen-12-yl]-6-methylpyrimidine-4-carboxamide bis(trifluoroacetate)], the IC50 on TYK2 (Table B1) was 1790 nM; in assay [1] (Table B1) it was 446 nM; in assay [2] (Table B1) it was over 10000 nM; in assay [3] (Table B1), 276 nM. Further, the “ALK % of inhibition” value in assay [4] (setting [10]) stood at 4.6%.
In the case of `N#Cc1ccc(NC(=O)N2CCN(C(=O)COc3ccc4cc3CCc3cccc(c3)Nc3ncc(Cl)c(n3)N4)CC2)cc1` [Example A9, 4-({[6-Chloro-2,4,8,22-tetraazatetracyclo[14.3.1.1(3,7).1(9,13)]docosa-1(20),3(22),4,6,9(21),10,12,16,18-nonaen-12-yl]oxy}acetyl)-N-(4-cyanophenyl)piperazine-1-carboxamide trifluoroacetate], the half-maximal inhibitory concentration (IC50) against TYK2 came to 22 nM; in assay [1] (setting [5]) it was 19 nM; in assay [2] (setting [6]), 67 nM; in assay [3] (setting [7]), 9.1 nM. In addition, the “ALK % of inhibition” value in assay [4] (setting [8]) was found to be 0%.
